Measurements: US20220306617A1, “SUBSTITUTED 1,3-PHENYL HETEROARYL DERIVATIVES AND THEIR USE IN THE TREATMENT OF DISEASE” (NOVARTIS AG, priority 2019, published 2022)

Biological target: T1, abc isoform of human TMEM16A channel expressed in CHO cells (Homo sapiens, UniProt Q5XXA6, DEL476-501)
T1 construct: expressed in transfected cells; host or cells: CHO cells, doxycycline-inducible expression under Blasticidin/Zeocin selection
T1 sequence (Q5XXA6 with tags, fused parts or gaps isoform Q5XXA6-5 DEL539-564): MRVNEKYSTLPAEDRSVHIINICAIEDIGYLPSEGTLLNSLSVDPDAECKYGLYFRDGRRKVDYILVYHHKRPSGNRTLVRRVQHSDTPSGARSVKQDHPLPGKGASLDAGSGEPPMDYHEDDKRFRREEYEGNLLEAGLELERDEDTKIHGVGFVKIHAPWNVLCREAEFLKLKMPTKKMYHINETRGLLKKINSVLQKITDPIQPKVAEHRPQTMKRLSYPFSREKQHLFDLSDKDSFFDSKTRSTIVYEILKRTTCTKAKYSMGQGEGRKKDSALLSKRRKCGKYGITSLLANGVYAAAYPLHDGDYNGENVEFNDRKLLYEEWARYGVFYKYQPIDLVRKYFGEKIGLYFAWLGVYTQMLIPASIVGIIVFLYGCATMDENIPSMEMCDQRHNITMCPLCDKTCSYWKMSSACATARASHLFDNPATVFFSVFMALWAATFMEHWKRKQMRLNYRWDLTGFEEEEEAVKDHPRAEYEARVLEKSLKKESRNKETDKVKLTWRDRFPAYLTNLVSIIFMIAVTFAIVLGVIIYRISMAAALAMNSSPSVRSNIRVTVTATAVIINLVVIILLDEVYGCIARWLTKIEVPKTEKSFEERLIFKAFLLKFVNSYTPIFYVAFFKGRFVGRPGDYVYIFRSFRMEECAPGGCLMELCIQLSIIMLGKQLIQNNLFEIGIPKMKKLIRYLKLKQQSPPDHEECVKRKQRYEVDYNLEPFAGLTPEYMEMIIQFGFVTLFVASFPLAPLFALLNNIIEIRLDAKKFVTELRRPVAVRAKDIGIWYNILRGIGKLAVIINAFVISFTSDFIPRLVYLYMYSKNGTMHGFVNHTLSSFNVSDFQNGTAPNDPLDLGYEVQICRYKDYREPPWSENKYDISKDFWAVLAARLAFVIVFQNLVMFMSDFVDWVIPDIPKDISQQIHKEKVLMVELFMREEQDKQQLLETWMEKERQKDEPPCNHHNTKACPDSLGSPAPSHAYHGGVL
Assay: Automated patch clamping (QPatch) assay to measure TMEM16A activity in whole-cell
Format: cell-based
Conditions: for EC50: CHO cells expressing human TMEM16A (abc), whole-cell automated patch clamp, Hill fit, read-out: TMEM16A QPATCH assay EC50 V3 EC50; for Emax: CHO, read-out: TMEM16A QPATCH assay EC50 V3 Assay Window (% TMEM16A max activation)
Method in brief: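 Whole-cell currents were recorded by planar automated patch clamp from induced CHO cells (doxycycline 1 μg/mL, 18-24 h), using a −70 mV hold, +70 mV step and −90 to +70 mV ramp. Values: Hill-fitted EC50, and activation scaled between vehicle current and reference-potentiator maximum; 0.3% DMSO final.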

[1] = maximum current at highest dose relative to reference potentiator at maximal concentration (upper limit) and vehicle (lower limit)

| EC50 [nM] | Emax [1] [%] | TMEM16A QPATCH assay EC50 V3 Assay Window (% TMEM16A max activation) [1] [%] | SMILES |
| --- | --- | --- | --- |
| 30 | 146 | – | CCC(CC)NC(=O)c1cc(-c2cccc(-c3ncc(C(=O)N[C@H](C(=O)OC(C)(C)C)C(C)C)o3)c2)[nH]n1 [Example 1.9, (S)-Tert-Butyl 3-Methyl-2-(2-(3-(3-(Pentan-3-Ylcarbamoyl)-1H-Pyrazol-5-yl)Phenyl)Oxazole-5-Carboxamido)Butanoate] |
| 10 | 32 | – | C[C@H](NC(=O)c1cc(-c2cccc(-c3ncc(C(=O)N[C@@H](C)C4CC4)o3)c2)[nH]n1)C1CC1 [Example 2.5, N-((S)-1-Cyclopropylethyl)-2-(3-(3-(((S)-1-Cyclopropylethyl)Carbamoyl)-1H-Pyrazol-5-Yl)Phenyl)Oxazole-5-Carboxamide] |
| 150 | 100 | – | CCC(CC)NC(=O)c1cnc(-c2cccc(-c3cc(C(=O)N[C@@H](C)c4ccccc4)n[nH]3)c2)o1 [Example 3.38, (S)-N-(Pentan-3-Yl)-2-(3-(3-((1-Phenylethyl)Carbamoyl)-1H-Pyrazol-5-yl)Phenyl)Oxazole-5-Carboxamide] |
| 200 | 109 | – | CCC(CC)NC(=O)c1cnc(-c2cccc(-c3cc(C(=O)N[C@H](C)C(C)C)n[nH]3)c2)o1 [Example 3.37, (R)-2-(3-(3-((3-Methylbutan-2-Yl)Carbamoyl)-1H-Pyrazol-5-Yl)Phenyl)-N-(Pentan-3-Yl)Oxazole-5-Carboxamide] |
| 1000 | 95 | – | CCC(CC)NC(=O)c1cnc(-c2cccc(-c3nc(C(=O)NC(CC)CC)n(CCOCCOCCOC)n3)c2)o1 [Example 15.9, 2-(3-(1-(2-(2-(2-Methoxyethoxy)Ethoxy)Ethyl)-5-(Pentan-3-Ylcarbamoyl)-1H-1,2,4-Triazol-3-Yl)Phenyl)-N-(Pentan-3-Yl)Oxazole-5-Carboxamide] |
| 130 | 69 | – | CCC(CC)NC(=O)c1cc(-c2cccc(-c3ncc(C(=O)NCc4ccccc4)o3)c2)[nH]n1 [Example 1.19, N-Benzyl-2-(3-(3-(Pentan-3-Ylcarbamoyl)-1H-Pyrazol-5-Yl)Phenyl)Oxazole-5-Carboxamide] |
| 940 | 80 | – | C[C@H](NC(=O)c1cnc(-c2cccc(-c3nnc(C(=O)NC4CCC(F)(F)CC4)[nH]3)c2)o1)C1CC1 [Example 13.4, (S)-N-(1-Cyclopropylethyl)-2-(3-(5-((4,4-Difluorocyclohexyl)Carbamoyl)-4H-1,2,4-Triazol-3-Yl)Phenyl)Oxazole-5-Carboxamide] |
| 10 | 87 | – | CCC(CC)NC(=O)c1cnc(-c2cccc(-c3cc(C(=O)N[C@@H](CC(C)C)C(=O)OC)n[nH]3)c2)o1 [Example 3.27, (S)-Methyl 4-Methyl-2-(5-(3-(5-(Pentan-3-Ylcarbamoyl)Oxazol-2-Yl)Phenyl)-1H-Pyrazole-3-Carboxamido)Pentanoate] |
| 30 | 66 | – | CCC(CC)NC(=O)c1cnc(-c2cccc(-c3cc(C(=O)NCC4CCCCC4)n[nH]3)c2)o1 [Example 3.18, 2-(3-(3-((Cyclohexylmethyl)Carbamoyl)-1H-Pyrazol-5-Yl)Phenyl)-N-(Pentan-3-Yl)Oxazole-5-Carboxamide] |
| 70 | 119 | – | CC(C)[C@H](NC(=O)c1cnc(-c2cccc(-c3nnc(C(=O)N[C@@H](C)C4CC4)[nH]3)c2)o1)C(=O)OC(C)(C)C [Example 12.4, (S)-Tert-Butyl 2-(2-(3-(5-(((S)-1-Cyclopropylethyl)Carbamoyl)-4H-1,2,4-Triazol-3-Yl)Phenyl)Oxazole-5-Carboxamido)-3-Methylbutanoate] |
| 200 | 81 | – | CCC(CC)NC(=O)c1cc(-c2cccc(-c3ncc(C(=O)N[C@H](C(=O)OC(C)(C)C)c4ccccc4)o3)c2)[nH]n1 [Example 1.37, (S)-Tert-Butyl 2-(2-(3-(3-(Pentan-3-Ylcarbamoyl)-1H-Pyrazol-5-yl)Phenyl)Oxazole-5-Carboxamido)-2-Phenylacetate] |
| 900 | 61 | – | CCOC(=O)[C@H](Cc1ccccc1)NC(=O)c1cnc(-c2cccc(-c3cc(C(=O)NC(CC)CC)n[nH]3)c2)o1 [Example 1.38, (S)-Ethyl 2-(2-(3-(3-(Pentan-3-Ylcarbamoyl)-1 H-Pyrazol-5-yl)Phenyl)Oxazole-5-Carboxamido)-3-Phenylpropanoate] |
| 20 | – | 124 | COC(=O)[C@@H](NC(=O)c1cnc(-c2cccc(-c3cc(C(=O)N[C@@H](C)C4CC4)n(CC(O)C(F)(F)F)n3)c2)o1)C(C)C (single isomer, unassigned) [8.1 (ii)] |
| 840 | 201 | – | O=C(NC1CCCC1)c1cnc(-c2cccc(-c3cc(C(=O)NC4CCCC4)n(CCCO)n3)c2)o1 [Example 5.2, N-Cyclopentyl-2-(3-(5-(Cyclopentylcarbamoyl)-1-(3-Hydroxypropyl)-1H-Pyrazol-3-Yl)Phenyl)Oxazole-5-Carboxamide] |
